Assay results taken from PubChem BioAssay (NCI).
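In this assay, cells in 96-well plates receive the compound at five concentrations for 48 hours. Endpoints are linearly interpolated between the surrounding concentrations. The concentration for 50% growth inhibition is given as GI50. At the TGI there is no net growth.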

Assays:
Experiment in all cases: NCI anticancer screen, dose series, 48 h
HCT-15 colon = tested on: HCT-15 colon
HOP-62 NSCLC = tested on: HOP-62 NSCLC
HOP-92 NSCLC = tested on: HOP-92 NSCLC
IGROV1 ovarian = tested on: IGROV1 ovarian
M19-MEL melanoma = tested on: M19-MEL melanoma
SNB-19 CNS = tested on: SNB-19 CNS
SW-620 colon = tested on: SW-620 colon
TK-10 renal = tested on: TK-10 renal
UACC-257 melanoma = tested on: UACC-257 melanoma
SR leukemia = tested on: SR leukemia

| Structure (SMILES) | TGI (HCT-15 colon) | TGI (HOP-62 NSCLC) | TGI (HOP-92 NSCLC) | TGI (IGROV1 ovarian) | TGI (M19-MEL melanoma) | TGI (SNB-19 CNS) | TGI (SW-620 colon) | TGI (TK-10 renal) | TGI (UACC-257 melanoma) | GI50 (HCT-15 colon) | GI50 (HOP-92 NSCLC) | GI50 (SR leukemia) | TGI (SR leukemia) | GI50 (SW-620 colon) | GI50 (TK-10 renal) | GI50 (UACC-257 melanoma) | GI50 (IGROV1 ovarian) | GI50 (SNB-19 CNS) | GI50 (HOP-62 NSCLC) |
| --- | --- | --- | --- | --- | --- | --- | --- | --- | --- | --- | --- | --- | --- | --- | --- | --- | --- | --- | --- |
| Cc1cc(N(CCC#N)S(=O)(=O)c2ccccc2)ccc1C=Nc1cccc(C(=O)O)c1 | > 100 µM | > 100 µM | > 100 µM | > 100 µM | > 100 µM | > 100 µM | > 100 µM | > 100 µM | > 100 µM | – | – | – | – | – | – | – | – | – | – |
| Cc1c(C)c2c(c(C)c1OC(=O)CCC(=O)[O-])CCC(C)(CCCCCCCCCCC[P+](c1ccccc1)(c1ccccc1)c1ccccc1)O2 (configuration not stated) | 3.02 µM | – | 0.276 µM | – | – | – | 0.842 µM | 1.18 µM | 0.512 µM | 0.977 µM | 0.078 µM | 0.261 µM | 9.05 µM | 0.174 µM | 0.244 µM | 0.151 µM | – | – | – |
| O=C([CH-]C(=O)c1ccccc1)c1ccccc1.[C-]#[O+].[C-]#[O+].[Ir] | > 100 µM | – | – | > 100 µM | – | > 100 µM | > 100 µM | > 100 µM | > 100 µM | 42.6 µM | – | – | – | 59.4 µM | > 100 µM | > 100 µM | 88.3 µM | 66.4 µM | – |
| CON(C)c1nc(N)c(C#N)c(C#N)c1C#N | > 10 µM | > 10 µM | – | > 10 µM | – | > 10 µM | > 10 µM | > 10 µM | – | – | – | – | > 10 µM | – | – | – | – | – | – |
| C=C1CC[C@@]2(C)[C@@H]([C@@H]1C)[C@H]1CC[C@@H]3[C@@]4(C)CC[C@H](O)C(C)(C)[C@@H]4CC[C@@]3(C)[C@]1(C)C[C@@H]2O | 11.2 µM | 9.18 µM | 4.82 µM | 3.77 µM | – | 8.44 µM | > 100 µM | 27 µM | 31.3 µM | – | – | – | > 100 µM | – | – | – | – | – | – |
| C1=N[C@]23C(=N[C@H](N=C2NCc2ccco2)[C@]24N=CNC2=N[C@H]3N=C4NCc2ccco2)N1 | > 100 µM | > 100 µM | > 100 µM | > 100 µM | – | > 100 µM | > 100 µM | > 100 µM | > 100 µM | > 100 µM | 5.34 µM | > 100 µM | > 100 µM | > 100 µM | > 100 µM | > 100 µM | > 100 µM | > 100 µM | > 100 µM |
| CC1(CO)C(O)CCC2(C)C1CCC1CC3CC12CCC3(O)CO (configuration not stated) | > 100 µM | – | > 100 µM | > 100 µM | > 100 µM | > 100 µM | > 100 µM | – | > 100 µM | – | – | – | – | – | – | – | – | – | – |
| COc1cccc(N/C(C)=C2/CCOC2=O)c1 | > 10 µM | > 10 µM | – | > 10 µM | – | > 10 µM | > 10 µM | > 10 µM | – | – | – | – | > 10 µM | – | – | – | – | – | – |
| O=C(NN1C(=O)C(Cl)C1c1cccc(O)c1)c1ccccc1O (configuration not stated) | > 100 µM | – | – | > 100 µM | > 100 µM | > 100 µM | – | > 100 µM | > 100 µM | – | – | – | – | – | – | – | – | – | – |
